ChEMBL document CHEMBL2057130, “Bruton's tyrosine kinase inhibitors: approaches to potent and selective inhibition, preclinical and clinical evaluation for inflammatory diseases and B cell malignancies” (J Med Chem, 2012)
pEC50, pIC50: −log10 of the molar value. Blank lines part the entries; values can stand above or below the compound they belong to.

Experiments:
Macrophage [1] = experiment: cells
Description: (§1) Inhibition of immobilized immune complex-stimulated TNFalpha production in macrophages

[2] = Oral bioavailability in dosed rat; format: ADME, organism-based; conditions: in vivo
[3] = Clearance in po dosed rat; format: ADME, organism-based; conditions: in vivo
Mus musculus [4] = experiment: Antiarthritic effect in mouse CIA model assessed as inhibition of clinical arthritis scores dosed prophylactically through subcutaneous route; format: functional
Blood [5] = experiment: Inhibition of CD63 expression in human whole blood; format: functional, tissue-based
[6] = Inhibition of anti-IgM-induced human B cell proliferation; format: functional, cell-based
Splenocyte = experiment: Inhibition of mouse B-cell splenocyte activation by cell proliferation assay; format: functional, cell-based
[7] = biological target: T1, Tyrosine-protein kinase BTK (Homo sapiens, UniProt Q06187)
Description: Inhibition of human BTK by enzymatic assay

Blood [8] = experiment: Inhibition of IgM-stimulated CD69 expression in human whole blood; format: functional, tissue-based
Rattus norvegicus = experiment: Inhibition of hypersensitive immune responses in rat passive cutaneous anaphylaxis model at 30 mg/kg; format: functional
Macrophage [9] = tested on: Macrophage
Description: as §1

Mus musculus [10] = experiment: Inhibition of anti-IgD antibody stimulated CD69 expression in mouse CIA model dosed prophylactically at 3 to 100 mg/kg, po measured 24 hrs post dose; format: functional; conditions: dose mg/kg 3-100
[11] = biological target: T1, Tyrosine-protein kinase BTK; experiment: Inhibition of BTK in human Ramos cells by FLIPR assay; format: cell-based

T1 sequence (Q06187 whole entry): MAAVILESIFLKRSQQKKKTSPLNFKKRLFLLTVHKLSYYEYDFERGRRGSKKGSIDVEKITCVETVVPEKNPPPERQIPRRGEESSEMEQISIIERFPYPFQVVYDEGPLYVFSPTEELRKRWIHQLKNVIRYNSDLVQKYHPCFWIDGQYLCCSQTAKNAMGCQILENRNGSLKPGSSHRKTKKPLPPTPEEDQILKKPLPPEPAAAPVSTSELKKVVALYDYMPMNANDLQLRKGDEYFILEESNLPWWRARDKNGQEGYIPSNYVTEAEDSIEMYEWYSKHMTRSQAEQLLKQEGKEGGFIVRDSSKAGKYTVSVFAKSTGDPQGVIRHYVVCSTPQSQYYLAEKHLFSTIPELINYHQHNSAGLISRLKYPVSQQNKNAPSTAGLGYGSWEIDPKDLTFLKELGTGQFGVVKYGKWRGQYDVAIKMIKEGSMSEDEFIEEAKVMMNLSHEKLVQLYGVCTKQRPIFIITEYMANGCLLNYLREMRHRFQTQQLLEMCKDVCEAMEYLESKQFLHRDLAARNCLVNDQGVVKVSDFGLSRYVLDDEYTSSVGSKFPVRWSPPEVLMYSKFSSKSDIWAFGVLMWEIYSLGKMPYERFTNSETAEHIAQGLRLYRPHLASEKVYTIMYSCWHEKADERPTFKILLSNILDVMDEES
Description for Mast cell: Inhibition of IgE-Fce cross-linking induced histamine release in mast cells

SMILES: Cc1c(NC(=O)c2ccc(C(C)(C)C)cc2)cccc1-c1cn(C)c(=O)c(Nc2ccc(C(=O)N3CCOCC3)cc2)n1
pIC50 (Macrophage [1]): 7.60
bioavailability [2]: < 1%
CL/F [3]: 86 mL/min/kg
inhibition (INH) (Mus musculus [4]): >97%
pEC50 (Blood [5]): 5.92
pIC50 [6]: 7.38

SMILES: Cc1ccccc1Nc1nc2cc(F)c(N(C)C(=O)/C=C/CN(C)C)cc2n2cncc12
pIC50 (Splenocyte): 8.47

SMILES: C=CC(=O)N1CCCC(c2c(Cl)c(-c3ccc(Oc4ccc(Cl)c(Cl)c4)c(OC)c3)c3c(N)ncnn23)C1 (stereo not given)
pIC50 (Splenocyte): 6.89

SMILES: CN1CCN(c2ccc(Nc3cc(-c4cccc(-n5ccc6cc(C7CC7)cc(F)c6c5=O)c4CO)cn(C)c3=O)nc2)CC1
inhibition in vivo at 30 mg/kg (Rattus norvegicus): 91%
pIC50 (Blood [8]): 7.77
pIC50 (Mast cell): 7.53
pIC50 (Macrophage [9]): 8.40
inhibition (INH) (Mus musculus [10]): 50%

SMILES: CC(C)(C)c1ccc(C(=O)N[C@@H]2CCCN(c3nc(Nc4ccc(C(=O)N5CCNCC5)cc4)c4nccn4n3)C2)cc1
pIC50 (Splenocyte): 7.25

SMILES: Cc1c(NC(=O)c2ccc(N(C)C)cc2)cccc1-c1nc(Nc2ccc(C(=O)N3CCOCC3)cc2)c2ncc(N)n2n1
pIC50 (Splenocyte): 7.49
pIC50 [7]: 7.52

SMILES: CN1CCC(=C2c3ccccc3C=Cc3ccccc32)CC1 [CYPROHEPTADINE]
inhibition in vivo at 30 mg/kg (Rattus norvegicus): 69%

Second part, led by results:

pIC50 [7]: 8.09
SMILES: Nc1ncnc2c1c(-c1ccc(Oc3ccccc3)cc1)nn2C1CCCC1

pIC50 [7]: 6.40
SMILES: CC(C)(C)c1ccc(C(=O)Nc2cccc(-c3cn4ccnc4c(Nc4ccccc4)n3)c2)cc1

pIC50 (Blood [8]; Homo sapiens, Blood): 8.40
SMILES: CN1CCN(c2ccc(Nc3cc(-c4cccc(N5CCOc6cc(C(C)(C)C)ccc6C5=O)c4CO)cn(C)c3=O)nc2)CC1

pIC50 [11]: 7.96
SMILES: Cc1c(-c2ccc(C(N)=O)c3[nH]c4cc(C(O)CO)ccc4c23)cccc1-n1cnc2ccc(F)cc2c1=O (stereo not given)

pIC50 [7]: 6.84
SMILES: Cc1c(NC(=O)c2ccc(N(C)C)cc2)cccc1-c1nc(Nc2ccc(C(=O)N3CCOCC3)cc2)c2nccn2n1
pIC50 (Splenocyte): 6.85

pIC50 [7]: > 7.00
SMILES: O=C(N[C@@H]1CCCN(c2ncnc3[nH]ccc23)C1)[C@H](Nc1ccccc1)C1CC1

pIC50 [7]: > 7.00
SMILES: O=C(CNc1ccccc1S(=O)(=O)N1CCCCC1)N[C@@H]1CCCN(c2ncnc3[nH]ccc23)C1
